The record followed here is patent US9029414B2, “Triterpenoid compounds and methods of use thereof” (Biotechnology Research Corporation, priority 2008, dated 2015).

Assay [1] relates to cortical neurons. The assay is described as follows: Cortical neuron survival assay against kainate excitotoxicity (LDH). In kind it is cell-based, Sprague-Dawley rats. To be noted: kainate 5-500 μM 20 min; for protection from kainate-induced excitotoxicity (LDH release): 30 μM 24 hrs. The procedure:
Cortical neurons were prepared from embryonic day 18 Sprague-Dawley rats. After the cortices had been removed from the brain, isolated cells were plated onto Poly d-Lysine (PDL) (P0899, Sigma)-coated 48 well plates (150687, NUNC) at a density of 2×10^5 cell per well using Neurobasal Medium (NB) (21103-049, Gibco) with B27 supplement (17504-044, Gibco), penicillin/streptomycin (15140, Gibco) and 1 mM L-glutamine (25030, Gibco). The cell culture was incubated at 37° C. in a humidified atmosphere of 5% CO2 in air. Medium was changed to growth medium (Neurobasal Medium with penicillin/streptomycin and B27 supplement) after 3 hours. Half medium was changed with growth medium every 2-3 days to maintain the cells until day 10 in vitro (DIV 10). Serial dilutions of samples were prepared in growth medium and DMSO was used as vehicle control. For pre-treating assay, half of the medium was removed from wells, and equal amount of diluted samples were replaced. Cells were then incubated for 2 hours at 37° C. in a humidified atmosphere of 5% CO2 in air. Culture was subsequently rinsed with Locke's solution (5 mM potassium chloride, 128 mM sodium chloride, 2.7 mM calcium chloride, 1 mM di-sodium hydrogen orthophosphate, 5 mM HEPES and 10 mM Glucose in Milli-Q water), then incubated with Locke's solution in the presence of glycine (10 μM) for 15 minutes before […] treatment. Kainate dissolved in Locke's plus glycine solution was then substituted and incubated for 20 minutes at 37° C. […] Afterwards, cells were incubated in growth medium for 18-24 hours and detected with Cytotoxicity Detection Kit (1644793, Roche). […]
FIG. 5 illustrates that DA001 protects neurons against differing concentrations of kainate. […] LDH release into the medium was then measured.
Cortical neurons were treated with DA021 or DA034 and subsequently subjected to varying concentrations of kainate. […] LDH release into the medium was then measured.
For orientation: LDH leaks from cells whose membrane has failed.

In assay [2] the test system is MOG-induced IL-17 in primary splenocytes. The assay is described as follows: IL-17 Quantikine ELISA in primary splenocytes of EAE mice. In kind it is cell-based. As to conditions: exogenous compound 30 μM; for decrease of IL-17 in response to exogenous compound: splenocytes of compound-treated EAE mice (100 mg/kg); for reduction in the amount of IL-17: splenocytes of vehicle-treated EAE mice, MOG 25 μg/mL, 48 hrs. How it is done:
On day 21, EAE mice were sacrificed by cervical dislocation and spleens were removed aseptically. The removed spleens were then cut with sterilized scissors and strained through […] mesh (BD Bioscience) with a plunger of 5 mL syringe (BD Bioscience) in 9 mL of RPMI 1640 (Invitrogen) with 100 U/mL penicillin and 100 μg/mL streptomycin (Sigma). The cell mixture was then added to 9 mL of Lympholyte (Cedarlane Laboratories) for gradient separation of splenocytes from red bloods cells by centrifugation at 1500 g for 20 min. After the centrifugation, the lympholyte layer containing splenocytes were carefully removed and washed with 10 mL of RPMI 1640 at 800 g for 10 min for three times. The isolated splenocytes were seeded onto different plate format and cultured with RPMI 1640 medium (Invitrogen) supplement with 10% heat inactivated fetal bovine serum (Invitrogen) and 100 U/mL penicillin and 100 μg/mL streptomycin at 37° C. CO2 incubator.
Splenocytes from EAE mice were cultured at the density of 1×10^6 cells in 12-well plates (Falcon) in the absence or presence of the MOG peptide (25 μg/mL) (Hooke Laboratories), DA001 and DA021 (30 μM) with RPMI 1640 medium (Invitrogen) supplement with 10% heat inactivated fetal bovine serum (Invitrogen) and 100 U/mL penicillin and 100 μg/mL streptomycin (Sigma) for 48 h. After 48 h, the supernatants were collected by pelleting the cells at 300 g for 10 min at 4° C. 50 μL of the each sample was added to the microtiter plate provided by the manufacturer of the Quantikine ELISA assay kit (R and D systems). Additional 50 μL of assay diluents buffer was added and incubated at room temperature for 2 h. […] Subsequently, 100 μL of stop solution was added to each well and the plate was read in 450 nm wavelength on a microplate reader (Dynex Revelation 2.2).
Cells were cultured in RPMI 1640 medium supplement with 10% heat inactivated fetal bovine serum and penicillin/streptomycin, in the absence or presence of MOG (25 μg/mL, Ex) with or without DA001 or DA021 (30 μM, Ex). […] The amount of IL-17 was calculated based on the standard curve established during the assay. […]
Cells were cultured in RPMI 1640 medium supplement with 10% heat inactivated fetal bovine serum and penicillin/streptomycin, in the absence or presence of MOG (25 μg/mL, Ex) with or without DA001 (30 μM, Ex). […] The amount of IL-17 was calculated based on the standard curve established during the assay. […]
Cells were cultured in RPMI 1640 medium supplement with 10% heat inactivated fetal bovine serum and penicillin/streptomycin, in the absence or presence of MOG (25 μg/mL, Ex) with or without DA021 (30 μM, Ex). […] The amount of IL-17 was calculated based on the standard curve established during the assay. […]
A general note: In an ELISA, binding on a coated surface is turned into a signal by an enzyme label.

SMILES strings stand for the structures.

For `CC(=O)OC[C@]12CC[C@@H](C3(C)CO3)C1C1CCC3[C@@]4(C)CC[C@H](O)[C@@](C)(CO)[C@@H]4CC[C@@]3(C)[C@]1(C)CC2` (stereo partly shown) [DA034], the “protection from kainate-induced excitotoxicity (LDH release)” value in assay [1] was “protect neurons against differing concentrations of Kainate”.

For the compound `C=C(C)[C@@H]1CC[C@]2(C(=O)O)CC[C@]3(C)C(CC[C@@H]4[C@@]5(C)CC[C@H](O[C@@H]6OC[C@H](O)[C@H](O)[C@H]6O[C@@H]6O[C@@H](C)[C@H](O)[C@@H](O)[C@H]6O)[C@@](C)(CO)[C@@H]5CC[C@]43C)[C@@H]12` (stereo partly drawn) [DA001, 3-O-[α-L-rhamnopyranosyl-(1→2)-α-L-arabinopyranosyl]-3,23-dihydroxy-20(29)-lupen-28-oic acid], in assay [2], the “decrease of IL-17 in response to exogenous compound” value was determined as 51% and the “reduction in the amount of IL-17” value was 65%. Besides, the “cell death (LDH release) vs DMSO control” value in assay [1] (40 μM 24 hrs, at high concentrations of kainate) is listed as “significant reduction in cell death”.

On to `C=C(C)[C@@H]1CC[C@]2(/C=N/O)CC[C@]3(C)C(CCC4[C@@]5(C)CCC(=O)[C@@](C)(CO)[C@@H]5CC[C@]43C)C12` (stereo partly shown) [DA021], for which, in assay [2], the “decrease of IL-17 in response to exogenous compound” value amounted to 89% and the “reduction in the amount of IL-17” value came to 68%. Moreover, in assay [1], the “protection from kainate-induced excitotoxicity (LDH release)” value is reported as “protect neurons against differing concentrations of Kainate”.
